Data taken from patent US8623879B2, “1-heterocyclyl-1,5-dihydro-pyrazolo[3,4-D] pyrimidin-4-one derivates and their use as PDE9A modulators” (Boehringer Ingelheim International GmbH, priority 2008, dated 2014).

Assays:
[1] = biological target: human PDE9A (Homo sapiens, UniProt O76083); conditions: concentrations of up to 100 micromolar; cited from earlier work
[2] = biological target: T1, human PDE9A2 (Homo sapiens, UniProt O76083); assay: PDE9A2 enzymatic activity assay (scintillation proximity assay, SPA); format: biochemical; conditions: for inhibition at 10 µM: read-out: % inhibition of PDE9A2 (at 10 micromolar concentration), 10 micromolar concentration; for inhibition at 10 µM / % inhibition of PDE9A2 (at 10 micromolar concentration): values above 100% adjusted to 100%; for IC50: reported only as range 1-100 or 101-1200 nanomolar, specific value lies within range, read-out: IC50 within range [nanomolar (nM)]
T1 construct: made in house; host or cells: Sf9 insect cells (infected); crude lysate used as enzyme source

[3] = biological target: T2, Murine PDE9A (Mus musculus, UniProt O70628); conditions: concentrations below 200 micromolar; cited from earlier work
T2 sequence (O70628 1-534): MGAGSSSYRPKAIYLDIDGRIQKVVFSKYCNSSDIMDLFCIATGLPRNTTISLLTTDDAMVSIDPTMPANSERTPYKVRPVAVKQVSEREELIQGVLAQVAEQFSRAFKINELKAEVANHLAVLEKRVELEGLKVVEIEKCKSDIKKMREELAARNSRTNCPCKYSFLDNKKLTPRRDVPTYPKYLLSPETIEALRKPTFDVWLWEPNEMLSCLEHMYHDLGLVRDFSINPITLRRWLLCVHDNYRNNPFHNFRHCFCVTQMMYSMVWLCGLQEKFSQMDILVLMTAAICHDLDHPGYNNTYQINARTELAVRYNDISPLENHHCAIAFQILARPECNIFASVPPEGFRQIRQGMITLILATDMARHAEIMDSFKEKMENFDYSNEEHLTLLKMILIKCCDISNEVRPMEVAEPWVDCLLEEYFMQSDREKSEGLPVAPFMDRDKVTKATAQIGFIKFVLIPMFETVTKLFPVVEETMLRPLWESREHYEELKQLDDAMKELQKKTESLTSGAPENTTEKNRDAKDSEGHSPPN

T1 sequence (O76083 1-533 isoform O76083-2): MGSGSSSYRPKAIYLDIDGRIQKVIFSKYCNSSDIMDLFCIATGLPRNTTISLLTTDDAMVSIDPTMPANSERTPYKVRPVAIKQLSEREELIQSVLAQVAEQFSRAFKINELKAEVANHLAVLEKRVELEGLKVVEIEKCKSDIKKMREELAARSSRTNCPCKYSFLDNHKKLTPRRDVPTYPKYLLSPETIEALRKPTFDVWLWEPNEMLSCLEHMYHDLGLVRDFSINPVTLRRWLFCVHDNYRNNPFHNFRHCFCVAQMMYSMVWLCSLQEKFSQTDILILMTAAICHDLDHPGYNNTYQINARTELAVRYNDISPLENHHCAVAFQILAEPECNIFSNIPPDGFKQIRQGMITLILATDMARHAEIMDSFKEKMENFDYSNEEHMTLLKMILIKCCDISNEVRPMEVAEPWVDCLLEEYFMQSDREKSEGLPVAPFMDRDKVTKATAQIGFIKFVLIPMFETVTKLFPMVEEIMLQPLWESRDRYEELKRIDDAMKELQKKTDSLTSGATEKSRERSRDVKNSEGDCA
Sequence of human PDE9A (O76083 whole entry): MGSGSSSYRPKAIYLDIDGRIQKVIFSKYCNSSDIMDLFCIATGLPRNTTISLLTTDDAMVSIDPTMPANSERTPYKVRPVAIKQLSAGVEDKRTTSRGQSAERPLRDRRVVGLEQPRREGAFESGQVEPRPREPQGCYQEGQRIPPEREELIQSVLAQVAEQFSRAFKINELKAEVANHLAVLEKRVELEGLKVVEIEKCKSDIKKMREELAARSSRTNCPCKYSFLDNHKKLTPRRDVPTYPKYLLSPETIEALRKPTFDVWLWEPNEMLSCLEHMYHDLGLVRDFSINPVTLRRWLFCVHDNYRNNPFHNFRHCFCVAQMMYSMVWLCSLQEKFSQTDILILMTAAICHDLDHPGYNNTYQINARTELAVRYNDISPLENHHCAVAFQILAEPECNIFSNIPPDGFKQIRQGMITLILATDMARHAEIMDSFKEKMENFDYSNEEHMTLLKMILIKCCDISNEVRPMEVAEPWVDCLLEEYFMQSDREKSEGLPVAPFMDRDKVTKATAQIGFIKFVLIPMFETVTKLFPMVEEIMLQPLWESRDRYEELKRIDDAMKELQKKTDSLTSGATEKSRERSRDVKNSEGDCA

Structure (SMILES) | inhibition on the isolated enzyme [1] | inhibition at 10 µM [2] [%] | IC50 [2] [nM] | % inhibition of PDE9A2 (at 10 micromolar concentration) [2] [%] | inhibition of murine PDE9A [3]
CC(=O)Nc1ccc(-c2c[nH]c(=O)cn2)cc1 [SKF94120] | no inhibition | – | – | – | –
OCCN(CCO)c1nc(N2CCCCC2)c2nc(N(CCO)CCO)nc(N3CCCCC3)c2n1 [dipyridamole] | no inhibition | – | – | – | –
CCOC(=O)C1=C[C@]2(CC)CCCN3CCc4c(n1c1ccccc41)[C@@H]32 [vinpocetine] | no inhibition | – | – | – | –
COc1ccc(C2CNC(=O)C2)cc1OC1CCCC1 (stereo not shown) [rolipram] | no inhibition | – | – | – | –
COC(=O)N1CCCC(n2ncc3c(=O)[nH]c(Cc4ccccc4OC(F)(F)F)nc32)C1 (racemic) [Example 156] | – | 99 | 1 to 100 | – | –
O=c1[nH]c(Cc2ccc(F)cc2)nc2c1cnn2C1CCCOC1 (racemic) [Example 101] | – | 98 | 1 to 100 | – | –
Cc1cccn(-c2ccccc2Cc2nc3c(cnn3C3CCOCC3)c(=O)[nH]2)c1=O [Example 40-7] | – | 95 | 101 to 1200 | – | –
O=c1[nH]c(Cc2ccccn2)nc2c1cnn2C1CCOC1 (racemic) [Example 124] | – | 95 | 101 to 1200 | – | –
O=c1[nH]c(CCC2CCCC2)nc2c1cnn2C1CCOCC1 [Example 9] | – | 99 | 1 to 100 | – | –
CC(=O)N1CCC(n2ncc3c(=O)[nH]c(Cc4ccccc4)nc32)C1 (racemic) [Example 172] | – | 100 | 1 to 100 | – | –
COc1ccc(C#N)c(Cc2nc3c(cnn3C3CCOCC3)c(=O)[nH]2)c1 [Example 35] | – | 100 | 101 to 1200 | – | –
CC1CC(n2ncc3c(=O)[nH]c(Cc4ccccn4)nc32)CCO1 (racemic) [Example 118] | – | – | 101 to 1200 | 89 | –
CC(C)Cc1nc2c(cnn2C2CCOCC2C)c(=O)[nH]1 (racemic) [Example 132-8] | – | – | 101 to 1200 | 94 | –
O=c1[nH]c(Cc2cc(OC(F)(F)F)ccc2F)nc2c1cnn2C1CCOCC1 [Example 50] | – | 97 | 1 to 100 | – | –
O=c1[nH]c(Cc2ccccc2O[C@@H]2CCOC2)nc2c1cnn2C1CCOCC1 [Example 57] | – | 100 | 1 to 100 | – | –
CC(=O)N1CCCC(n2ncc3c(=O)[nH]c(Cc4ccccn4)nc32)C1 (racemic) [Example 176] | – | 85 | 101 to 1200 | – | –
CC1CC(n2ncc3c(=O)[nH]c(Cc4ccccc4C(F)(F)F)nc32)CCO1 (racemic) [Example 116] | – | – | 101 to 1200 | 93 | –
O=c1[nH]c(Cc2ncccn2)nc2c1cnn2C1CCOCC1 [Example 66] | – | 91 | 101 to 1200 | – | –
O=C(c1ccccc1)N1CCC(n2ncc3c(=O)[nH]c(Cc4ccccc4)nc32)C1 (racemic) [Example 166] | – | 92 | 101 to 1200 | – | –
CC(C)Cc1nc2c(cnn2C2CCCN(C(=O)OC(C)(C)C)C2)c(=O)[nH]1 (racemic) [Example 31] | – | 98 | 1 to 100 | – | –

Structure (SMILES) | inhibition on the isolated enzyme [1] | inhibition at 10 µM [2] [%] | IC50 [2] [nM] | % inhibition of PDE9A2 (at 10 micromolar concentration) [2] [%] | inhibition of murine PDE9A [3]
CC1COCCC1n1ncc2c(=O)[nH]c(CC3CCCC3)nc21 (racemic) [Example 132-2] | – | 100 | 1 to 100 | – | –
CC(C)Cn1c(=O)n(C)c(=O)c2[nH]cnc21 [IBMX] | no inhibition | – | – | – | not inhibited
O=c1[nH]c(Cc2ccccc2)nc2c1cnn2C1CCNCC1 [Example 202] | – | 83 | 101 to 1200 | – | –
CN1CCC(n2ncc3c(=O)[nH]c(CC4CCCC4)nc32)C1 (racemic) [Example 207] | – | 100 | 1 to 100 | – | –
COc1ccc(Cc2nc3c(cnn3C3CCOCC3)c(=O)[nH]2)cc1F [Example 27] | – | 99 | 1 to 100 | – | –
CCC(Cc1nc2c(cnn2C2CCCN(C(C)=O)C2)c(=O)[nH]1)C(F)(F)F (mixture of isomers) [Example 173] | – | 86 | 101 to 1200 | – | –
O=c1[nH]c(Cc2cccc(C(F)(F)F)n2)nc2c1cnn2C1CCOCC1 [Example 64] | – | 97 | 1 to 100 | – | –
CN1CCC(n2ncc3c(=O)[nH]c(CC4CCC4)nc32)C1 (racemic) [Example 214] | – | 98 | 1 to 100 | – | –
COc1ccc(C2CCCCC2Cc2nc3c(cnn3C3CCOCC3)c(=O)[nH]2)cn1 (racemic) [Example 40-4] | – | 92 | 101 to 1200 | – | –
O=c1[nH]c(Cc2ccccc2OC(F)(F)F)nc2c1cnn2C1CCOC1 (racemic) [Example 70] | – | 99 | 1 to 100 | – | –
O=c1[nH]c(Cc2ccccc2C(F)(F)F)nc2c1cnn2C1CCCOC1 (racemic) [Example 97] | – | 98 | 1 to 100 | – | –
CC(=O)N1CCCC(n2ncc3c(=O)[nH]c(CC4CCC4)nc32)C1 (racemic) [Example 180] | – | 96 | 101 to 1200 | – | –
CC(c1ccccc1)c1nc2c(cnn2C2CCOCC2)c(=O)[nH]1 (racemic) [Example 14] | – | 96 | 101 to 1200 | – | –
CC(C)CCc1nc2c(cnn2C2CCOCC2)c(=O)[nH]1 [Example 3] | – | 99 | 1 to 100 | – | –
CN1CCC(n2ncc3c(=O)[nH]c(Cc4ccccc4)nc32)C1 (racemic) [Example 210] | – | 97 | 1 to 100 | – | –
CC1CC(n2ncc3c(=O)[nH]c(Cc4ccccc4C(F)(F)F)nc32)CCO1 (racemic) [Example 113] | – | 92 | 101 to 1200 | – | –
O=c1[nH]c(Cc2ccccc2Cl)nc2c1cnn2C1CCOCC1 [Example 4] | – | 98 | 1 to 100 | – | –
O=c1[nH]c(Cc2ccccc2C(F)(F)F)nc2c1cnn2C1CCOC1 (racemic) [Example 86] | – | 95 | 101 to 1200 | – | –
Cc1cccnc1Cc1nc2c(cnn2C2CCOC2)c(=O)[nH]1 (racemic) [Example 87] | – | 86 | 101 to 1200 | – | –
CC1COCCC1n1ncc2c(=O)[nH]c(CC3CCCC3)nc21 (racemic) [Example 132-5] | – | – | 1 to 100 | 100 | –
